Test [1] can be described thus: Inhibition of L-[3H]Leu uptake at Aquifex aeolicus sodium-coupled leucine transporter.
Test [2] has as its system Aquifex aeolicus. The test is described as follows: Activity at Aquifex aeolicus sodium-coupled leucine transporter assessed as inhibition of L-[3H]Ala transport at 20 uM.
Test [3] is described as follows: Inhibition of L-[3H]Ala uptake at Aquifex aeolicus sodium-coupled leucine transporter.
For test [4], the system named is Aquifex aeolicus. The test is described as follows: Activity at Aquifex aeolicus sodium-coupled leucine transporter assessed as inhibition of L-[3H]Ala transport at 1 uM.
In test [5] the test system is Aquifex aeolicus. As to the kind of experiment: Activity at Aquifex aeolicus sodium-coupled leucine transporter assessed as inhibition of L-[3H]Ala transport at 50 uM.
The nature of test [6]: (§1) Binding affinity to Aquifex aeolicus sodium-coupled leucine transporter.
The subject of test [7] is Aquifex aeolicus. Described as §1.

Results on 2 compounds are retold here after ChEMBL document CHEMBL1147061, “Antidepressant binding site in a bacterial homologue of neurotransmitter transporters” (Nature, 2007).

Molecules are shown by their SMILES.

`CN(C)CCCN1c2ccccc2CCc2ccc(Cl)cc21` [CLOMIPRAMINE]: the IC50 (usually the concentration that inhibits the measured activity by half) came to 250 µM in test [1] and 4.7 µM in test [3]. In addition, the Michaelis constant (Km) (usually the concentration of substrate that gives half-maximal velocity) turned out to be 0.47 µM in the test on Aquifex aeolicus [2], 0.42 µM in the test with Aquifex aeolicus [4] and 0.48 µM with Aquifex aeolicus [5]. The Vmax (as a rule, the rate approached at saturating substrate) in the test on Aquifex aeolicus [2] came to 970 pmol/min/mg; in the test on Aquifex aeolicus [4], 1480 pmol/min/mg; in the test on Aquifex aeolicus [5], 770 pmol/min/mg.
`CC(C)C[C@H](N)C(=O)O` [LEUCINE]: binding in test [6] was put at a Kd of 0.02 µM. The kcat (in general, the number of substrate molecules converted per active site and unit of time at saturation) with Aquifex aeolicus [7] was found to be 0.000333 s⁻¹.
